Each structure is given as a SMILES string.

Assay in all cases: LDH Activity Assay
What all share (conditions): pH 7.4

The target of test [1] is L-lactate dehydrogenase B chain (Mus musculus, UniProt P16125). As to the method:
(§1) Lactate dehydrogenase activity was determined by recording the absorbance change at 340 nm produced by the oxidation of NADH. Assays were performed at 37°C. The reagent mixture contained 0.115 mM NADH, 50 mM sodium phosphate buffer, pH 7.4, sodium pyruvate (0.31 mM for LDH-C4 and LDH-B4 and 1.25 mM for LDH-A4) and the enzyme preparation, diluted with phosphate buffer, pH 7.4, to provide a ΔE340 of 0.06-0.07 per minute when the activity was assayed in a 1-cm light path. For determination of dissociation constants, the isozymes, the inhibitors (oxamate or oxamate derivatives) and the coenzyme were incubated with the buffer used in the assay for 10 min at 37°C before adding the substrate.

Test [2] deals with L-lactate dehydrogenase C chain (Mus musculus, UniProt P00342). On the procedure: as §1
Test [3] concerns the target L-lactate dehydrogenase A chain (Mus musculus, UniProt P06151). On the procedure:
as §1

Chain of L-lactate dehydrogenase C chain (P00342 whole entry): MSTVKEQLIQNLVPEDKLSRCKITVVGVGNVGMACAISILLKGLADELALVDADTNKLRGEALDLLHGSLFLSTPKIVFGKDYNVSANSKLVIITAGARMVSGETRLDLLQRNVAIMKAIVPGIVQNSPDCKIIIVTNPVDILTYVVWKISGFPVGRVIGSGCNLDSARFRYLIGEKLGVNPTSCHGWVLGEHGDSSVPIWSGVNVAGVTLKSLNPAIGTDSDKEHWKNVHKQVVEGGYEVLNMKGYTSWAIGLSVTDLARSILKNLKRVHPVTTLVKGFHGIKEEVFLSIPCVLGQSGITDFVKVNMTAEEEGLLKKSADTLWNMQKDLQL
Chain of L-lactate dehydrogenase B chain (P16125 whole entry): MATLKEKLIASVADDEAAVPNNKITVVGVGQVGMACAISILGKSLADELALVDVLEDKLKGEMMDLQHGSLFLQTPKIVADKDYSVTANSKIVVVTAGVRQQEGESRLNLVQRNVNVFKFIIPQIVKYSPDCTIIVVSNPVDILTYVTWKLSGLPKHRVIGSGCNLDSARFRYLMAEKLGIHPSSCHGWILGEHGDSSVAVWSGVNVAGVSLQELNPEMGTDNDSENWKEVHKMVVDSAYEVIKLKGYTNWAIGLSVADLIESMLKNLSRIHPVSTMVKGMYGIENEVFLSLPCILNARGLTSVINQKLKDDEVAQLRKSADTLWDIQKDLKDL

Turning to `CCC(C)NC(=O)C(=O)O` (stereo not drawn) [N-sec-Butyl oxamate], the inhibition constant Ki – broadly, the dissociation constant of the complex between target and ligand, obtained from inhibition or displacement – in test [1] came out at 14500 µM; in test [2] it was 400 µM; in test [3] it was 12500 µM.
Consider `CCCCNC(=O)C(=O)O` [N-Butyl oxamate], for which the results for the Ki in test [1], in test [2] and in test [3] were 7000 µM, 750 µM and 9100 µM, respectively.
Take `NC(=O)C(=O)O` [carbamoylformic acid]: the figures for the Ki in test [1], in test [2] and in test [3] were 60 µM, 30 µM and 80 µM, respectively.
In the same order, the values of `CCCNC(=O)C(=O)O` [N-Propyl oxamate] are 887 µM, 12 µM and 1750 µM.
In the same order, the values of `CC(C)CNC(=O)C(=O)O` [N-Isobutyl oxamate] are 7000 µM, 2000 µM and 6000 µM.
As for `CCNC(=O)C(=O)O` [N-Ethyl oxamate], the Ki was 35 µM in test [1], 2 µM in test [2] and 140 µM in test [3].

Values taken from BindingDB's records for doi:10.3109/14756366.2011.566221 (Instituto Politécnico Nacional, 2011).
